Patent US6699681B2, “Endothelin converting enzymes and the amyloid β peptide” (Mayo Foundation for Medical Education and Research, priority 2000, dated 2004)

B1: SolECE-1: recombinant soluble form of ECE-1: extracellular domain of human ECE-1a with c-myc and 6×His tags, secreted by CHO cells (protein, UniProt P42892 90-770, looked up)
extracellular domain: QYQTRSPSVCLSEACVSVTSSILSSMDPTVDPCHDFFSYACGGWIKANPVPDGHSRWGTFSNLWEHNQAIIKHLLENSTASVSEAERKAQVYYRACMNETRIEELRAKPLMELIERLGGWNITGPWAKDNFQDTLQVVTAHYRTSPFFSVYVSADSKNSNSNVIQVDQSGLGLPSRDYYLNKTENEKVLTGYLNYMVQLGKLLGGGDEEAIRPQMQQILDFETALANITIPQEKRRDEELIYHKVTAAELQTLAPAINWLPFLNTIFYPVEINESEPIVVYDKEYLEQISTLINTTDRCLLNNYMIWNLVRKTSSFLDQRFQDADEKFMEVMYGTKKTCLPRWKFCVSDTENNLGFALGPMFVKATFAEDSKSIATEIILEIKKAFEESLSTLKWMDEETRKSAKEKADAIYNMIGYPNFIMDPKELDKVFNDYTAVPDLYFENAMRFFNFSWRVTADQLRKAPNRDQWSMTPPMVNAYYSPTKNEIVFPAGILQAPFYTRSSPKALNFGGIGVVVGHELTHAFDDQGREYDKDGNLRPWWKNSSVEAFKRQTECMVEQYSNYSVNGEPVNGRHTLGENIADNGGLKAAYRAYQNWVKKNGAEHSLPTLGLTNNQLFFLGFAQVWCSVRTPESSHEGLITDPHSPSRFRVIGSLSNSKEFSEHFRCPPGSPMNPPHKCEVW
modifications: extracellular domain c-myc and 6xHis tags
notes: recombinant soluble form of ECE-1: extracellular domain of human ECE-1a with c-myc and 6×His tags, secreted by CHO cells

Legend:
H4 neuroglioma cells = experiment: Extracellular Aβ after treatment of H4 cells with metalloprotease inhibitors; format: cell-based, human; conditions: H4 neuroglioma cells; thiorphan or captopril at concentrations greater than 1000-times the reported IC50 for the target enzymes
Method: Human and guinea pig Aβ40 or Aβ42 was measured in plasma by sandwich ELISA as previously described (Suzuki et al., 1994, Science, 264:1336-1340) using the BAN-50/BA-27 or BAN-50/BC-05 antibody systems, respectively (Takeda; Japan). Hamster Aβ40- or Aβ42-derived from CHO cells was measured using the BNT-77/BA-27 or BNT-77/BC-05 antibody systems, respectively. Aβ concentration in samples was determined by comparison to synthetic Aβ40 or Aβ42 standards (Bachem, Switzerland). Data was obtained from triplicate wells.
In particular, the sandwich ELISA used herein was performed as follows: 96-well microtiter plates were coated overnight at 4° C. with 100 μl of a 5 μg/ml dilution of primary antibody in sodium carbonate coating buffer (SCCB; 0.1 M Na2CO3, pH 9.6). Plates were blocked overnight at 4° C. with 300 μl of BLOCKAGE Solution (PBS+1.0% BLOCKAGE (Snow Brand Milk Products, Japan), 0.05% NaN3, pH 7.4). Samples for analysis and synthetic Aβ standards (Bachem, Switzerland) were diluted in buffer EC (0.02 M NaH2PO4, 0.002 M EDTA, 0.4 M NaCl, 0.2% BSA, 0.05% CHAPS, 0.04% BLOCKAGE, 0.05% NaN3, pH 7.0) and allowed to incubate on the plates overnight at 4° C. Plates were washed twice with PBS (8 mM Na2HPO4, 1.5 mM KH2PO4, 139 mM NaCl, 2.7 mM KCl, pH 7.4) and 100 μl of secondary antibody directly coupled to HRP (EZ-LINK™ Plus Activated Peroxidase kit (contents of kit: peroxidase, 5 M sodium cyanoborohydride solution (NaBH3CN), quenching buffer (3 M ethanolamine, pH 9.0), BupH™ phosphate buffered saline, Buph™ carbonate-bicarbonate buffer), according to manufacturers directions; Pierce Chemical Co., Rockford, Ill.) was allowed to bind either 4 hrs at room temperature or overnight at 4° C. Plates were then washed twice with PBS containing 0.05% Tween 20 followed by two additional washes in PBS. Detection was performed using TMB (3,3′,5,5′-tetramethyl-benzidine) as an HRP substrate according to the manufacturer's specifications (Kirkegaard & Perry Laboratories (KPL), Gaithersburg, Md.) and the reaction stopped by the addition of 100 μl of 1N H3PO4. Plates were read at 450 nm in a SpectraMax Plus spectrophotometer (Molecular Devices; Sunnyvale, Calif.) and analyzed by SOFTmax® PRO software. Aβ40 or Aβ42 were quantitated by comparison with the values obtained for each synthetic Aβ standard from the same plate.
Cells were passaged into 6-well plates one day prior to treatment and grown to confluence. […] After treatment, the culture medium was harvested, spun at 14,000 xg, and the supernatant analyzed for Aβ40 or Aβ42 using sandwich ELISA and for secreted APP using Western blot. […] Bound antibody was detected by incubation with the appropriate HRP-linked secondary antibody (Amersham, Uppsala, Sweden) using ECL™ Western blotting reagents (Amersham) followed by exposure to X-ray film. […]

Aβ in the brain = conditions: infusion into the brain of rats; deposition of Aβ42; previous report; cited from earlier work
synthetic Aβ40 or Aβ42 = experiment: Aβ degradation by SolECE-1, sandwich ELISA; format: biochemical; conditions: SolECE-1 approximately 0.2 μM; Aβ 0.01 μM; 24 hrs at 37° C., pH 6.5
Method: (§1) SolECE-1 (approximately 0.2 μM) was pre-incubated for 15 min at room temperature with the ECE inhibitors PD069185 (synthesized according to published methods (Ahn et al., 1998, Biochem. Biophys. Res. Comm., 243:184-190) by the Mayo Clinic Organic Chemistry Core Facility, Jacksonville, Fla.) or phosphoramidon (150 μM), or an equal volume of vehicle (DMSO or PBS, respectively) prior to incubation with synthetic Aβ40 or Aβ42 (0.01 μM) in 50 mM MES (pH 6.5) containing 0.01% C12E10, 1 mM PMSF, 100 μM leupeptin, and 20 μM pepstatin. As a control, Aβ was incubated with Ni-NTA purified proteins from non-transfected CHO cells, or in reaction buffer alone. Following incubation for 24 hrs at 37° C., the reactions were stopped by the addition of 5 mM EDTA. Aβ concentration was then analyzed using a highly specific sandwich ELISA that captures Aβ via binding of antibody BAN-50 to the N-terminus, and detects only full-length Aβ peptides ending at residue 40 (using antibody BA-27) or 42 (using antibody BC-05). Thus, Aβ that has been further hydrolyzed will not be detected using this assay. To further analyze the degradation of Aβ by SolECE1, the enzyme was incubated with ^3H labeled Aβ40 (0.56 μM, 2×10^4 dpm) as described above and resulting peptides were separated by reverse-phase chromatography.

3H-Aβ40 = experiment: Degradation of 3H labeled Aβ40 by SolECE-1, reverse-phase chromatography; format: biochemical; conditions: 3H-Aβ40 0.56 μM
Method: as §1

| Molecule | extracellular Aβ accumulation (H4 neuroglioma cells) | amount of Aβ in the brain (Aβ in the brain) | loss of synthetic Aβ40 and Aβ42 detected by sandwich ELISA (synthetic Aβ40 or Aβ42) | effect on 3H-Aβ40 by reverse-phase chromatography (3H-Aβ40) |
| --- | --- | --- | --- | --- |
| O=C(O)CNC(=O)C(CS)Cc1ccccc1 (centres unmarked) [thiorphan] | failed to result in increased extracellular Aβ | significant increase | – | – |
| C[C@H](CS)C(=O)N1CCC[C@H]1C(=O)O [captopril] | failed to result in increased extracellular Aβ | – | – | – |
| B1 | – | – | almost complete loss | loss of the full-length (i.e., unhydrolyzed) Aβ and the formation of at least 4 novel peaks |
